Tests used:
[1] = tested on: Parkinson's disease (PD) mice, 6-OHDA method; test: 6-OHDA Parkinson's disease mice, hanging experiment; type: in vivo, C57 mice; conditions: Group D, CTMB 20 mg/kg ip, cut-off 60 s
Experimental: (§1) The mice were randomly divided into a sham operation group (group S, given a blank emulsion with a volume equal to that of the administered group), a model group (group M, given a blank emulsion with a volume equal to that of the administered group), a CTMB group (20 mg/kg, group D), and a levodopa group (levodopa: benserazide hydrochloride=4:1, 12 mg/kg, group L), each group included 10-12 mice, and all of them were administered intraperitoneally.
Preoperatively, mice were fasted for 12 h, and mice were anesthetized with 4% isoflurane induction and maintained with 1.5% isoflurane. The mice were subsequently immobilized on a brain stereotaxic apparatus. The bregma and lambda points were exposed by gently wiping the cranial surface with a cotton swab after cutting the scalp. The stereotaxic apparatus was adjusted to align the heights of the bregma and lambda points, thereby leveling the skull. The bregma point was designated as the origin, the coordinates where the injection site was located were located, and the drill was used to drill a small hole in the skull above the injection site.
6-OHDA (12.5 μg/μL) was injected into the striatum region (AP+0.5 mm; ML+2.00 mm; DV-3.00 mm and-2.00 mm) of the mice, and 1 μL 6-OHDA was injected into each of the two points at a rate of 0.5 μL/min. The needle was left in place for 3 min after the injection was completed, and then the injection needle was lifted, and the scalp of the mice was sutured and disinfected. The sham operation group was injected with an equal volume of saline containing 0.02% ascorbic acid, and other operations were performed as above. After the procedure, the mice were placed in the cage at an appropriate temperature. After awakening from anesthesia, the mice were kept normally.
The hanging experiment: normal mice have climbing activity, which requires proper grip strength and motor coordination, so the hanging experiment may be used to examine motor dysfunction in mice. A metal rod with a diameter of 1.5 mm was placed horizontally on top of the box, and a distance from the metal rod to the bottom of the box was 30 cm. […] Measurement was performed twice, with an interval of 1 min or more between each test, and the results were averaged over the two times.
The motor function of the mice was comprehensively assessed using the rod-climbing experiment and the hanging experiment at 1, 2, 3, and 4 weeks after drug administration.

IL-1 = IL-1 in cerebral cortex of TBI rats; type: in vivo, SD rats; conditions: 30 mg/kg ip 2 h after TBI; 24 h after administration; FIG. 3
Experimental: The experimental grouping and drug administration plan were as follows. • Sham operation group (Group P): saline was given with the same volume as in the CTMB group; • Model group (T group): a blank emulsion was given with the same volume as in the CTMB group; • Medium dose group (Group M): a dose of 30 mg/kg of CTMB emulsion injection was given.
The experimental grouping and drug administration plan were the same as the test 3. After 2 h of the TBI modeling, different groups of rats were administered intraperitoneally. After 24 h of the administration, the rats were deeply anesthetized, the head was severed and the brain was removed, about 60-120 mg of hemisphere cortex was taken out from the hemisphere on the blood side, 10 times the volume of ice-cold centrifugal buffer used for biochemical assays was added, homogenization was carried out in an ice bath for 10 min, and centrifugation was carried out at 4° C. and 14000 rpm/min for 30 min. The supernatant was extracted, and inflammatory factors IL-1, IL-6, and TNF-α were tested according to the instructions of IL-1, IL-6, and TNF-α assay kits, respectively.

[2] = tested on: neurons of substantia nigra region and striatum of PD mice; test: HE staining of substantia nigra and striatum of PD mice; type: in vivo, C57 mice; conditions: Group D, CTMB 20 mg/kg ip, 4 weeks; compared with model group; FIG. 5-7
Experimental: as §1
After completing the evaluation of motor function after 4 weeks of drug administration, the mice were deeply anesthetized, perfused with 20 mL of saline and 20 mL of 4% paraformaldehyde via the heart, and the brains were rapidly severed and extracted from the head, which were then preserved and fixed in 4% paraformaldehyde for 72 h after removal, and then embedded with paraffin to prepare the slices with a thickness of 4 μm for subsequent pathological and histological studies.
Hematoxylin-eosin (HE) staining may be used to observe changes in the pathological condition of brain tissue. […]

## COc1cc(OC)c(OC)cc1C=C1CCC1 [CTMB, 1-(cyclobutylidenemethyl)-2,4,5-trimethoxybenzene]
[1]; baseline 2 weeks after 6-OHDA
  Hanging time, Before administration: 45.5 ± 14.6 s
[1]
  Hanging time, 1 week of administration: 51.8 ± 14.1 s
  Hanging time, 2 weeks of administration: 56.8 ± 5.2 s
  Hanging time, 3 weeks of administration: 58.8 ± 2.8 s
  Hanging time, 4 weeks of administration: 57.6 ± 4.6 s
IL-1
  content of IL-1 in cerebral cortex tissue: significantly reduced
[2]
  degree of pathological damage to the substantia nigra region and striatum: reduced
